Experimental data taken from BigSolDB 2.1.

CN(C)CCC=C1c2ccccc2CCc2ccccc21.Cl
Conditions | solubility (mole fraction)
in 2-butanone, 283.23 K | 0.00254
in 2-butanone, 288.16 K | 0.00275
in 2-butanone, 293.2 K | 0.00304
in 2-butanone, 298.15 K | 0.00338
in 2-butanone, 303.16 K | 0.00375
in 2-butanone, 308.2 K | 0.00415
in 2-butanone, 313.15 K | 0.00462
in 2-butanone, 318.67 K | 0.00518
in 2-butanone, 323.35 K | 0.00584
in DMF, 283.86 K | 0.03
in DMF, 288.15 K | 0.032
in DMF, 293.05 K | 0.0353
in DMF, 298.04 K | 0.0387
in DMF, 303.05 K | 0.0425
in DMF, 308.17 K | 0.047
in DMF, 313.3 K | 0.0519
in DMF, 318.16 K | 0.0571
in DMF, 323 K | 0.0633
in THF, 283.09 K | 0.000628
in THF, 288.07 K | 0.000755
in THF, 293.82 K | 0.000884
in THF, 298.23 K | 0.00101
in THF, 303.1 K | 0.00116
in THF, 309.04 K | 0.00135
in THF, 313.13 K | 0.00152
in THF, 317.96 K | 0.00174
in THF, 323.16 K | 0.00196
in acetone, 283.17 K | 0.00226
in acetone, 288.13 K | 0.00252
in acetone, 293.2 K | 0.00282
in acetone, 298.07 K | 0.00316
in acetone, 303.21 K | 0.00354
in acetone, 308.19 K | 0.00398
in acetone, 313.2 K | 0.00448
in acetone, 318.2 K | 0.00503
in acetone, 323.1 K | 0.00565
in acetonitrile, 283.19 K | 0.00773
in acetonitrile, 288.13 K | 0.0089
in acetonitrile, 293.2 K | 0.0102
in acetonitrile, 298.19 K | 0.0118
in acetonitrile, 303.16 K | 0.0136
in acetonitrile, 308.13 K | 0.0157
in acetonitrile, 313.17 K | 0.0183
in acetonitrile, 318.13 K | 0.0212
in acetonitrile, 323.17 K | 0.0249
in cyclohexanone, 282.93 K | 0.00512
in cyclohexanone, 288.07 K | 0.00585
in cyclohexanone, 293.11 K | 0.0066
in cyclohexanone, 298.43 K | 0.00743
in cyclohexanone, 303.09 K | 0.00829
in cyclohexanone, 308.26 K | 0.00952
in cyclohexanone, 313.27 K | 0.011
in cyclohexanone, 319.7 K | 0.0128
in cyclohexanone, 323.1 K | 0.0144
in isobutanol, 283.25 K | 0.0281
in isopentanol, 283.17 K | 0.0122
in isopentanol, 288.19 K | 0.0159
in isopentanol, 293.17 K | 0.0202
in isopentanol, 298.2 K | 0.0256
in isopentanol, 303.23 K | 0.0326
in isopentanol, 308.17 K | 0.0416
in isopentanol, 313.15 K | 0.0532
in isopentanol, 318.2 K | 0.0671
in isopentanol, 323.17 K | 0.0827
in isopropanol, 283.16 K | 0.00585
in isopropanol, 288.35 K | 0.00786
in isopropanol, 293.16 K | 0.0102
in isopropanol, 298.16 K | 0.0133
in isopropanol, 303.05 K | 0.0177
in isopropanol, 308.06 K | 0.0239
in isopropanol, 313.54 K | 0.034
in isopropanol, 318.16 K | 0.0456
in isopropanol, 323.3 K | 0.0592
in n-butanol, 283.1 K | 0.0203
in n-butanol, 288.2 K | 0.0261
in n-butanol, 293.13 K | 0.0333
in n-butanol, 298.15 K | 0.042
in n-butanol, 303.4 K | 0.0537
in n-butanol, 308.2 K | 0.0662
in n-butanol, 313.15 K | 0.0803
in n-butanol, 318.16 K | 0.0953
in n-butanol, 323.23 K | 0.112
in n-pentanol, 288.23 K | 0.0366
in n-pentanol, 293.21 K | 0.0456
in n-pentanol, 298.07 K | 0.0562
in n-pentanol, 303.07 K | 0.0701
in n-pentanol, 308.2 K | 0.0855
in n-pentanol, 313.16 K | 0.1
in n-pentanol, 318.07 K | 0.117
in n-pentanol, 323.07 K | 0.133
in n-propanol, 283.17 K | 0.0266
in n-propanol, 288.17 K | 0.0349
in n-propanol, 293.16 K | 0.0442
in n-propanol, 298.1 K | 0.0557
in n-propanol, 303.07 K | 0.0691
in n-propanol, 308.24 K | 0.0851
in n-propanol, 313.16 K | 0.1
in n-propanol, 318.07 K | 0.116
in n-propanol, 323.2 K | 0.13
in sec-butanol, 283.2 K | 0.00725
in sec-butanol, 288.2 K | 0.00934
in sec-butanol, 293.21 K | 0.0121
in sec-butanol, 298.1 K | 0.0156
in sec-butanol, 303.17 K | 0.0207
in sec-butanol, 308.13 K | 0.0278
in sec-butanol, 313.2 K | 0.0367
in sec-butanol, 318.17 K | 0.0483
in sec-butanol, 323.2 K | 0.0637
